What is called IC50 is the concentration at which inhibition is half-maximal.

In brackets after ≈: the same amount, converted by molar mass. Like-named read-outs stand apart in the source and are kept apart here.

One data set has as its system Alcaligenes faecalis. Briefly: Antibacterial spectrum (Table A), 50% inhibition. It counts as cell-based. From the text:
(§1) This effect is quite unexpected, since of the hitherto known derivatives of 6-aminopenicillanic acid only those being substituted with an acyl group at the 6-amino group have shown an antibacterial effect. The effect on penicillin-sensitive, gram-positive bacteria is less than that of benzylpenicillin and of α-aminobenzylpenicillin, whereas the effect on gram-negative bacilli, e.g. coli and salmonella species, is on a many times higher level than that of e.g. benzylpenicillin and α-aminobenzylpenicillin. […] IC50 means the concentration required for 50% inhibition.

The test system of another data set is Bacillus megatherium KD. The data set is described as follows: Antibacterial spectrum (Table A), 50% inhibition. It counts as cell-based.
Description: as §1

The next data set concerns Bacillus subtilis KA2. Briefly: Antibacterial spectrum (Table A), 50% inhibition. It counts as cell-based.
Description: as §1

The subject of data set [1] is Corynebacterium xerosis FF. Briefly: Antibacterial spectrum (Table A), 50% inhibition. It counts as cell-based.
Description: as §1

Data set [2] concerns Diplococcus pneumoniae EA. Briefly: Antibacterial spectrum (Table A), 50% inhibition. It counts as cell-based. Conditions: Streptococcus pneumoniae.
Description: as §1

The test system of data set [3] is Erysipelothrix insidiosa FU. The data set is described as follows: Antibacterial spectrum (Table A), 50% inhibition. In kind it is cell-based. Conditions: Erysipelothrix rhusiopathiae.
Description: as §1

The test system of data set [4] is Escherichia coli, average of 36 strains. Briefly: Antibacterial spectrum (Table A), 50% inhibition. It counts as cell-based.
Description: as §1

Data set [5] relates to Klebsiella pneumoniae, average of 12 strains. The data set is described as follows: Antibacterial spectrum (Table A), 50% inhibition. In kind it is cell-based.
Description: as §1

Data set [6] concerns Listeria Monocytogenes FT. The data set is described as follows: Antibacterial spectrum (Table A), 50% inhibition. It counts as cell-based.
Description: as §1

The subject of data set [7] is Proteus, average of 8 strains. The data set is described as follows: Antibacterial spectrum (Table A), 50% inhibition. In kind it is cell-based.
Description: as §1

In a further data set the test system is Pseudomonas aeruginosa. Briefly: Antibacterial spectrum (Table A), 50% inhibition. It counts as cell-based.
Description: as §1

Data set [8] deals with Salmonella abortivoequina. The data set is described as follows: Antibacterial spectrum (Table A), 50% inhibition. In kind it is cell-based.
Description: as §1

For another data set, the system named is Salmonella chlerasuis. The data set is described as follows: Antibacterial spectrum (Table A), 50% inhibition. In kind it is cell-based.
Description: as §1

The test system of another data set is Salmonella enteritidis. The data set is described as follows: Antibacterial spectrum (Table A), 50% inhibition. In kind it is cell-based. Conditions: Salmonella enterica.
Description: as §1

For the next data set, the system named is Salmonella hirschfeldii. Briefly: Antibacterial spectrum (Table A), 50% inhibition. It counts as cell-based.
Description: as §1

The subject of the next data set is Salmonella paratyphi A. The data set is described as follows: Antibacterial spectrum (Table A), 50% inhibition. Conditions: Salmonella enterica. It counts as cell-based.
Description: as §1

Data set [9] relates to Salmonella schottmuelleri. Briefly: Antibacterial spectrum (Table A), 50% inhibition. It counts as cell-based.
Description: as §1

The test system of the next data set is Salmonella typhimurium. Briefly: Antibacterial spectrum (Table A), 50% inhibition. It counts as cell-based. Conditions: Salmonella enterica.
Description: as §1

The test system of another data set is Salmonella typhosa. The data set is described as follows: Antibacterial spectrum (Table A), 50% inhibition. It counts as cell-based. Conditions: Salmonella enterica.
Description: as §1

Another data set has as its system Shigella dysenteriae. Briefly: Antibacterial spectrum (Table A), 50% inhibition. It counts as cell-based.
Description: as §1

For the next data set, the system named is Shigella flexneri. The data set is described as follows: Antibacterial spectrum (Table A), 50% inhibition. In kind it is cell-based.
Description: as §1

Data set [10] concerns Staph. aureus, penicillin sensitive. Briefly: Antibacterial spectrum (Table A), 50% inhibition. It counts as cell-based. Conditions: Staphylococcus aureus.
Description: as §1

In data set [11] the test system is Staph. aureus, penicillinase producing. The data set is described as follows: Antibacterial spectrum (Table A), 50% inhibition. It counts as cell-based. Conditions: Staphylococcus aureus.
Description: as §1

For data set [12], the system named is Streptococcus faecalis E13. The data set is described as follows: Antibacterial spectrum (Table A), 50% inhibition. In kind it is cell-based. Conditions: Enterococcus faecalis.
Description: as §1

The next data set deals with Streptococcus pyogenes. Briefly: Antibacterial spectrum (Table A), 50% inhibition. It counts as cell-based.
Description: as §1

Another data set deals with Vibrio comma. Briefly: Antibacterial spectrum (Table A), 50% inhibition. Conditions: Vibrio cholerae. In kind it is cell-based.
Description: as §1

For data set [13], the system named is Escherichia coli HA2 Leo strain. The data set is described as follows: Antibacterial activity (Tables A and B), 50% inhibition. It counts as cell-based. Conditions: HA2LEOSTRAIN, Table A.
Description: as §1
In Table B below the activity of a number of the compounds of the invention against the Escherichia coli HA2 Leo strain of Table A is shown:
The compounds of Table B were obtained by enzymatic hydrolysis of the corresponding esters described in the Examples mentioned by treatment with a 20 per cent mouse serum at 37°C in 90 minutes.

A further data set deals with Escherichia Coli HA2. The data set is described as follows: In vivo experiment: survival of mice infected with Escherichia Coli HA2 (Table C). Conditions: 10 mice. As to the method: The great difference between the spectrum of the hereinbefore mentioned FL 1060 and those of G-penicillin and ampicillin indicates a difference in the mode of action. This is also supported by in vivo experiments, in which mice (weight 27 to 30 g) were infected with 0.5 ml of a 24 hour old NIH bouillon culture of Escherichia Coli HA2 1000 times diluted in gastric mucin (5%) (Orthana). After half an hour and again after 61/2 hours a single dose was given subcutaneously in 0.5 ml. of a 0.9 per cent sodium chloride solution. After 24 hours the numbers of surviving mice were registered.
All surviving mice were still alive after 4 days, when observation of them was terminated.

The next data set in a line: Solubility in water. It counts as physicochemical.
Setting [14] is: Diplococcus pneumoniae EA, read-out: IC50.
[15] abbreviates: average of 12 strains, read-out: IC50.
Setting [16] is: Listeria Monocytogenes FT, read-out: IC50.
[17] abbreviates: Proteus, average of 8 strains, read-out: IC50.
Setting [18] is: Salmonella abortivoequina, read-out: IC50.
The mark [19] stands for this setting: Salmonella chlerasuis, read-out: IC50.
The mark [20] stands for this setting: Salmonella enteritidis, read-out: IC50.
The mark [21] stands for this setting: Salmonella typhimurium, read-out: IC50.
Where [22] appears, read: Streptococcus faecalis E13, read-out: IC50.

Take `CC1(C)S[C@@H]2[C@H](NC(=O)Cc3ccccc3)C(=O)N2[C@H]1C(=O)O` [G-Pen., benzylpenicillin]: the IC50 with Alcaligenes faecalis was found to be 1.6 µg/mL (≈ 4.78 µM); with Bacillus megatherium KD (Bacillus), 0.016 µg/mL (≈ 0.0478 µM); in the data set with Bacillus subtilis KA2 it was 0.01 µg/mL (≈ 0.0299 µM); in data set [1] (Corynebacterium xerosis) it was 0.013 µg/mL (≈ 0.0389 µM); in data set [2], 0.01 µg/mL (≈ 0.0299 µM); in [3] it was 0.025 µg/mL (≈ 0.0748 µM). The IC50 is 32 µg/mL (≈ 95.7 µM) in data set [4]; 29 µg/mL (≈ 86.7 µM) in data set [5]; 0.1 µg/mL (≈ 0.299 µM) in [6] (Listeria monocytogenes); 5.4 µg/mL (≈ 16.1 µM) in data set [7]; over 100 µg/mL with Pseudomonas aeruginosa; 2.5 µg/mL (≈ 7.48 µM) in data set [8] (Salmonella). The IC50 in the data set with Salmonella chlerasuis (Salmonella) came to 1.6 µg/mL (≈ 4.78 µM); with Salmonella enteritidis (ENTERITIDIS), 2.5 µg/mL (≈ 7.48 µM); in the data set with Salmonella hirschfeldii, 0.13 µg/mL (≈ 0.389 µM); in the data set on Salmonella paratyphi A, 3.2 µg/mL (≈ 9.57 µM); in [9], 3.2 µg/mL (≈ 9.57 µM); in the data set with Salmonella typhimurium (TYPHIMURIUM), 2.5 µg/mL (≈ 7.48 µM). For the same compound, the IC50 was 2 µg/mL (≈ 5.98 µM) in the data set on Salmonella typhosa; 5 µg/mL (≈ 15 µM) with Shigella dysenteriae; 10 µg/mL (≈ 29.9 µM) in the data set on Shigella flexneri; 0.016 µg/mL (≈ 0.0478 µM) in data set [10]; 100 µg/mL (≈ 299 µM) in data set [11]; 3.2 µg/mL (≈ 9.57 µM) in [12] (E13). The values for the half-inhibitory concentration (IC50) (in the data set with Streptococcus pyogenes; with Vibrio comma; in data set [13]) were 0.008 µg/mL (≈ 0.0239 µM), 0.79 µg/mL (≈ 2.36 µM) and 32 µg/mL (≈ 95.7 µM), respectively.
For `CC1(C)S[C@@H]2[C@H](/N=C/N3CCCCCC3)C(=O)N2[C@H]1C(=O)O` [FL 1060, 6-[(hexahydro-1H-azepin-1-yl)-methyleneamino]-penicillanic acid, hydrochloric, dihydrate], the IC50 in the data set with Alcaligenes faecalis was 0.63 µg/mL; in the data set with Bacillus megatherium KD (Bacillus megatherium KD, read-out: IC50), 0.5 µg/mL; in the data set on Bacillus subtilis KA2 (read-out: IC50) it was 5 µg/mL; in [1] (Corynebacterium xerosis FF, read-out: IC50), 1.6 µg/mL; in data set [2] (setting [14]), 3.2 µg/mL; in [3], 20 µg/mL. Also, the IC50 was 0.089 µg/mL in data set [4]; 0.65 µg/mL in [5] (setting [15]); 50 µg/mL in data set [6] (setting [16]); 0.23 µg/mL in [7] (setting [17]); over 100 µg/mL with Pseudomonas aeruginosa (read-out: IC50); 0.04 µg/mL in data set [8] (setting [18]). The IC50 came to 0.16 µg/mL in the data set on Salmonella chlerasuis (setting [19]); 0.16 µg/mL in the data set on Salmonella enteritidis (setting [20]); 0.016 µg/mL with Salmonella hirschfeldii; 0.13 µg/mL with Salmonella paratyphi A; 0.063 µg/mL in data set [9]; 0.063 µg/mL in the data set on Salmonella typhimurium (setting [21]). In addition, the IC50 was 0.079 µg/mL in the data set with Salmonella typhosa; 0.16 µg/mL in the data set with Shigella dysenteriae; 0.05 µg/mL in the data set on Shigella flexneri; 5 µg/mL in [10]; over 100 µg/mL in [11]; over 100 µg/mL in data set [12] (setting [22]). For the same compound, the values for the concentration for half-maximal inhibition (IC50) (with Streptococcus pyogenes (read-out: IC50); with Vibrio comma; in data set [13]) were 0.5 µg/mL, 0.4 µg/mL and 0.016 µg/mL, respectively. Further, the per cent surviving was 0 per cent in the data set on Escherichia Coli HA2 (single dose 7.5 μg s.c., given twice, 24 hours); 0 per cent with Escherichia Coli HA2 (single dose 15 μg s.c., given twice, 24 hours); 50 per cent with Escherichia Coli HA2 (single dose 30 μg s.c., after half an hour and again after 6 1/2 hours, 24 hours (survivors alive after 4 days)).
As for `CC1(C)S[C@@H]2[C@H](N=CN3CCCCCC3)C(=O)N2[C@H]1C(=O)O` [Example 6, 6-[(Hexahydro-1H-azepin-1-yl)-methyleneamino]-penicillanic acid], in “Solubility in water”, the solubility entry is recorded as “soluble in water”.
As to `CC1(C)S[C@@H]2[C@H](NC(=O)[C@H](N)c3ccccc3)C(=O)N2[C@H]1C(=O)O` [Ampicillin, α-aminobenzylpenicillin], the IC50 in the data set with Alcaligenes faecalis was found to be 0.5 µg/mL (≈ 1.43 µM); with Bacillus subtilis KA2 (read-out: IC50), 0.025 µg/mL (≈ 0.0715 µM); in data set [2] (setting [14]), 0.01 µg/mL (≈ 0.0286 µM); in data set [3] it was 0.04 µg/mL (≈ 0.114 µM); in [4] it was 2.2 µg/mL (≈ 6.3 µM); in [5] (setting [15]) it was 26 µg/mL (≈ 74.4 µM). The IC50 was 0.1 µg/mL (≈ 0.286 µM) in data set [6] (setting [16]); 1.3 µg/mL (≈ 3.72 µM) in data set [7] (setting [17]); over 100 µg/mL in the data set on Pseudomonas aeruginosa (read-out: IC50); 0.25 µg/mL (≈ 0.715 µM) in [8] (setting [18]); 0.32 µg/mL (≈ 0.916 µM) in the data set on Salmonella chlerasuis (setting [19]); 0.4 µg/mL (≈ 1.14 µM) in the data set on Salmonella enteritidis (setting [20]). Besides, the IC50 with Salmonella hirschfeldii was determined as 0.079 µg/mL (≈ 0.226 µM); in the data set with Salmonella paratyphi A it was 0.4 µg/mL (≈ 1.14 µM); in data set [9], 0.63 µg/mL (≈ 1.8 µM); in the data set on Salmonella typhimurium (setting [21]) it was 0.5 µg/mL (≈ 1.43 µM); in the data set on Salmonella typhosa, 0.32 µg/mL (≈ 0.916 µM); in the data set with Shigella dysenteriae it was 0.63 µg/mL (≈ 1.8 µM). Besides, the IC50 amounted to 0.79 µg/mL (≈ 2.26 µM) in the data set with Shigella flexneri; 0.025 µg/mL (≈ 0.0715 µM) in data set [10]; 130 µg/mL (≈ 372 µM) in data set [11]; 0.79 µg/mL (≈ 2.26 µM) in data set [12] (setting [22]); 0.013 µg/mL (≈ 0.0372 µM) in the data set on Streptococcus pyogenes (read-out: IC50); 0.4 µg/mL (≈ 1.14 µM) with Vibrio comma. This compound gave a concentration for half-maximal inhibition (IC50) in [13] of 2 µg/mL (≈ 5.72 µM). Further, the per cent surviving was 0 per cent in the data set on Escherichia Coli HA2 (single dose 75 μg s.c., given twice, 24 hours); 0 per cent in the data set on Escherichia Coli HA2 (single dose 150 μg s.c., given twice, 24 hours); 70 per cent in the data set on Escherichia Coli HA2 (single dose 300 μg s.c., given twice, 24 hours (survivors alive after 4 days)).

(Values after US3957764A, “6-Aminopenicillanic acid derivatives” (priority 1969, dated 1976).)
